Laboratory results as given in patent US7785607B2 (priority 2004, dated 2010).
Like-named read-outs stand apart in the source and are kept apart here.

Test system: IFN-gamma-producing T lymphocytes (PBMC)
Assay type: cell-based, human
Details: for SFCs/2.5 × 10^5 cells: μg/mL: proteins 2 each, ESAT-6 pool 50, CFP-10 pool 8, both pools 58, PHA 1, PPD 10

phytohemagglutinin [PHA]
Absolute value (spots in control wells subtracted): 237 | response scored positive or negative: positive | SFCs/2.5 × 10^5 cells ([…], mean of duplicate wells): 240 SFCs/2.5 × 10^5 cells | Absolute value (spots in control wells subtracted) (sample 1b latent tuberculosis): 236 | SFCs/2.5 × 10^5 cells (sample 1b latent tuberculosis, mean of duplicate wells): 240 SFCs/2.5 × 10^5 cells | response scored positive or negative (sample 1e anergic subject): negative | Absolute value (spots in control wells subtracted) (sample 1e anergy): 6 | SFCs/2.5 × 10^5 cells (sample 1e anergy): 11 SFCs/2.5 × 10^5 cells | response scored positive or negative (sample 1d healthy control): positive
